{"source": "the supplement of paper PMC7287046", "details_in_all_cases": "exposure time: 72 h", "key": {"AM38": {"system": "AM38", "protocol": "(§1)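 Glioma cell lines and primary cultures were treated with single drugs in a nine-step threefold dilution series, about 72 h. Viability was read by CellTiter-Glo and normalised to untreated controls. Absolute IC50 was fitted in GraphPad Prism; values beyond the tested dose range are censored at the block's top or lowest dose.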"}, "SNB75": {"system": "SNB75", "protocol": "as §1"}, "SF268": {"system": "SF268", "protocol": "as §1"}, "SF539": {"system": "SF539", "protocol": "as §1"}, "U118": {"system": "U118", "protocol": "as §1"}, "KNS42": {"system": "KNS42", "protocol": "as §1"}, "U251": {"system": "U251", "protocol": "as §1"}, "T98": {"system": "T98", "protocol": "as §1"}, "U87": {"system": "U87", "protocol": "as §1"}, "CAS-1": {"system": "CAS-1", "protocol": "as §1"}}, "data": [{"compound": "CC(=O)O[C@@]12CO[C@@H]1C[C@H](O)[C@@]1(C)C(=O)[C@H](O)C3=C(C)[C@@H](OC(=O)[C@H](O)[C@@H](NC(=O)OC(C)(C)C)c4ccccc4)C[C@@](O)([C@@H](OC(=O)c4ccccc4)[C@H]21)C3(C)C", "note": "[Docetaxel]", "values": [{"measurement": "IC50 (absolute, viability)", "setting": "AM38", "result": 1.28, "unit": "nM"}, {"measurement": "IC50 (absolute, viability)", "setting": "SNB75", "result": 1.67, "unit": "nM"}, {"measurement": "IC50 (absolute, viability)", "setting": "SF268", "result": 2.31, "unit": "nM"}, {"measurement": "IC50 (absolute, viability)", "setting": "SF539", "result": 0.628, "unit": "nM"}, {"measurement": "IC50 (absolute, viability)", "setting": "U118", "result": 10.1, "unit": "nM"}, {"measurement": "IC50 (absolute, viability)", "setting": "KNS42", "result": 4.38, "unit": "nM"}, {"measurement": "IC50 (absolute, viability)", "setting": "U251", "result": 0.0604, "unit": "nM"}, {"measurement": "IC50 (absolute, viability)", "setting": "T98", "result": 0.818, "unit": "nM"}, {"measurement": "IC50 (absolute, viability)", "setting": "U87", "result": 2.73, "unit": "nM"}, {"measurement": "IC50 (absolute, viability)", "setting": "CAS-1", "result": 43.7, "unit": "nM"}]}, {"compound": "C=CCc1cccc(/C=N/NC(=O)CN2CCN(Cc3ccccc3)CC2)c1O", "note": "[PAC-1]", "values": [{"measurement": "IC50 (absolute, viability)", "setting": "AM38", "result": 404, "unit": "nM"}, {"measurement": "IC50 (absolute, viability)", "setting": "SNB75", "result": 2980, "unit": "nM"}, {"measurement": "IC50 (absolute, viability)", "setting": "SF268", "result": 2970, "unit": "nM"}, {"measurement": "IC50 (absolute, viability)", "setting": "SF539", "result": 3060, "unit": "nM"}, {"measurement": "IC50 (absolute, viability)", "setting": "U118", "result": 5440, "unit": "nM"}, {"measurement": "IC50 (absolute, viability)", "setting": "KNS42", "result": 17800, "unit": "nM"}, {"measurement": "IC50 (absolute, viability)", "setting": "U251", "result": 6150, "unit": "nM"}, {"measurement": "IC50 (absolute, viability)", "setting": "T98", "result": 1710, "unit": "nM"}, {"measurement": "IC50 (absolute, viability)", "setting": "U87", "result": 7180, "unit": "nM"}, {"measurement": "IC50 (absolute, viability)", "setting": "CAS-1", "result": "> 100000", "unit": "nM"}]}, {"compound": "Cc1cc([C@@H](C)Nc2ccccc2C(=O)O)c2nc(N3CCOCC3)cc(=O)n2c1", "note": "[AZD6482]", "values": [{"measurement": "IC50 (absolute, viability)", "setting": "AM38", "result": 8350, "unit": "nM"}, {"measurement": "IC50 (absolute, viability)", "setting": "SNB75", "result": 9910, "unit": "nM"}, {"measurement": "IC50 (absolute, viability)", "setting": "SF268", "result": 13900, "unit": "nM"}, {"measurement": "IC50 (absolute, viability)", "setting": "SF539", "result": 4860, "unit": "nM"}, {"measurement": "IC50 (absolute, viability)", "setting": "U118", "result": 22000, "unit": "nM"}, {"measurement": "IC50 (absolute, viability)", "setting": "KNS42", "result": 41400, "unit": "nM"}, {"measurement": "IC50 (absolute, viability)", "setting": "U251", "result": 5070, "unit": "nM"}, {"measurement": "IC50 (absolute, viability)", "setting": "T98", "result": 8390, "unit": "nM"}, {"measurement": "IC50 (absolute, viability)", "setting": "U87", "result": 6690, "unit": "nM"}, {"measurement": "IC50 (absolute, viability)", "setting": "CAS-1", "result": 3150, "unit": "nM"}]}, {"compound": "Nc1ccn([C@@H]2O[C@H](CO)[C@@H](O)C2(F)F)c(=O)n1", "note": "[Gemcitabine]", "values": [{"measurement": "IC50 (absolute, viability)", "setting": "AM38", "result": 145, "unit": "nM"}, {"measurement": "IC50 (absolute, viability)", "setting": "SNB75", "result": 148, "unit": "nM"}, {"measurement": "IC50 (absolute, viability)", "setting": "SF268", "result": 210, "unit": "nM"}, {"measurement": "IC50 (absolute, viability)", "setting": "SF539", "result": 182, "unit": "nM"}, {"measurement": "IC50 (absolute, viability)", "setting": "U118", "result": 320, "unit": "nM"}, {"measurement": "IC50 (absolute, viability)", "setting": "KNS42", "result": 859, "unit": "nM"}, {"measurement": "IC50 (absolute, viability)", "setting": "U251", "result": 149, "unit": "nM"}, {"measurement": "IC50 (absolute, viability)", "setting": "T98", "result": 450, "unit": "nM"}, {"measurement": "IC50 (absolute, viability)", "setting": "U87", "result": 27.9, "unit": "nM"}, {"measurement": "IC50 (absolute, viability)", "setting": "CAS-1", "result": 206, "unit": "nM"}]}, {"compound": "CCC(=O)N1CCN(c2ccc(-n3c(=O)ccc4cnc5ccc(-c6cnc7ccccc7c6)cc5c43)cc2C(F)(F)F)CC1", "note": "[Torin1]", "values": [{"measurement": "IC50 (absolute, viability)", "setting": "AM38", "result": 4.18, "unit": "nM"}, {"measurement": "IC50 (absolute, viability)", "setting": "SNB75", "result": 19.1, "unit": "nM"}, {"measurement": "IC50 (absolute, viability)", "setting": "SF268", "result": 74.6, "unit": "nM"}, {"measurement": "IC50 (absolute, viability)", "setting": "SF539", "result": 28, "unit": "nM"}, {"measurement": "IC50 (absolute, viability)", "setting": "U118", "result": 27.4, "unit": "nM"}, {"measurement": "IC50 (absolute, viability)", "setting": "KNS42", "result": 434, "unit": "nM"}, {"measurement": "IC50 (absolute, viability)", "setting": "U251", "result": 199, "unit": "nM"}, {"measurement": "IC50 (absolute, viability)", "setting": "T98", "result": 25.1, "unit": "nM"}, {"measurement": "IC50 (absolute, viability)", "setting": "U87", "result": 17.4, "unit": "nM"}, {"measurement": "IC50 (absolute, viability)", "setting": "CAS-1", "result": 28.5, "unit": "nM"}]}, {"compound": "CCOc1nc(NC(=O)Cc2cc(OC)ccc2OC)cc(N)c1C#N", "note": "[JNK inhibitor VIII]", "values": [{"measurement": "IC50 (absolute, viability)", "setting": "AM38", "result": 15800, "unit": "nM"}, {"measurement": "IC50 (absolute, viability)", "setting": "SNB75", "result": 8380, "unit": "nM"}, {"measurement": "IC50 (absolute, viability)", "setting": "SF268", "result": 21100, "unit": "nM"}, {"measurement": "IC50 (absolute, viability)", "setting": "SF539", "result": 7090, "unit": "nM"}, {"measurement": "IC50 (absolute, viability)", "setting": "U118", "result": 28800, "unit": "nM"}, {"measurement": "IC50 (absolute, viability)", "setting": "KNS42", "result": 36500, "unit": "nM"}, {"measurement": "IC50 (absolute, viability)", "setting": "U251", "result": 48700, "unit": "nM"}, {"measurement": "IC50 (absolute, viability)", "setting": "T98", "result": 6360, "unit": "nM"}, {"measurement": "IC50 (absolute, viability)", "setting": "U87", "result": 12000, "unit": "nM"}, {"measurement": "IC50 (absolute, viability)", "setting": "CAS-1", "result": 20200, "unit": "nM"}]}, {"compound": "C[C@@H](Oc1cc(-c2cnn(C3CCNCC3)c2)cnc1N)c1c(Cl)ccc(F)c1Cl", "note": "[Crizotinib]", "values": [{"measurement": "IC50 (absolute, viability)", "setting": "SF268", "result": 29.6, "unit": "nM"}, {"measurement": "IC50 (absolute, viability)", "setting": "SF539", "result": "< 22.9", "unit": "nM"}, {"measurement": "IC50 (absolute, viability)", "setting": "U118", "result": "< 22.9", "unit": "nM"}, {"measurement": "IC50 (absolute, viability)", "setting": "KNS42", "result": 25000, "unit": "nM"}, {"measurement": "IC50 (absolute, viability)", "setting": "U251", "result": 330, "unit": "nM"}, {"measurement": "IC50 (absolute, viability)", "setting": "T98", "result": 1880, "unit": "nM"}, {"measurement": "IC50 (absolute, viability)", "setting": "U87", "result": 3630, "unit": "nM"}, {"measurement": "IC50 (absolute, viability)", "setting": "CAS-1", "result": "> 50000", "unit": "nM"}]}]}
